Measured values taken from patent US20110176998A1, “IMAGING AND THERAPY OF VIRUS-ASSOCIATED TUMORS” (THE JOHNS HOPKINS UNIVERSITY, priority 2007, published 2011).

Columns and labels:
[1] = cited from earlier work
[2] = serum and whole blood; 24 hour period; cited from earlier work
[3] = earlier clinical use of FIAU (toxicity); format: in vivo, humans; conditions: conservatively estimated
Method: With regard to the potential clinical use of BETR therapy, FIAU-associated toxicity warrants discussion. FIAU was previously investigated as an antiviral agent. […] In those trials, treatment for less than four weeks with a cumulative dose less than 200 mg was not associated with either clinical or biochemical evidence of toxicity. Thus, the “no-effect dose” of FIAU might be conservatively estimated to be on the order of 0.1 mg/kg per administration. […] Extrapolating from xenograft experiments, a radiotherapeutic effect is likely to be achieved at doses of FIAU that are orders of magnitude times less than the no-effect FIAU dose in humans.

[4] = in vivo; cited from earlier work

## O=c1[nH]c(=O)n([C@@H]2O[C@H](CO)[C@@H](O)[C@@H]2F)cc1I [FIAU, 2′-fluoro-2′-deoxy-β-D-5-iodouracil-arabinofuranoside]
[1]; earlier antiviral trials
  toxicity of chronic dosing: hepatic damage and in some cases fatality
[1]; treatment for less than four weeks
  cumulative dose not associated with clinical or biochemical evidence of toxicity: less than 200 mg
[2]
  labeled compound remaining unchanged: 97.8%±0.1%
[3]
  no-effect dose: ~0.1 mg/kg per administration
[4]
  blood-brain barrier penetration: does not penetrate the blood-brain barrier
